Results from paper PMC6968694 (Emerging Microbes & Infections, 2020).

B1: Glycinamide-RNase-transformylase T from Mycobacterium tuberculosis (enzyme)
chain: MIDGWTEEQHEPTVRHERPAAPQDVRRVMLLGSAEPSRELAIALQGLGAEVIAVDGYVGAPAHRIADQSVVVTMTDAEELTAVIRRLQPDFLVTVTAAVSVDALDAVEQADGECTELVPNARAVRCTADREGLRRLAADQLGLPTAPFWFVGSLGELQAVAVHAGFPLLVSPVAGVAGQGSSVVAGPNEVEPAWQRAAGHQVQPQTGGVSPRVCAESVVEIEFLVTMIVVCSQGPNGPLIEFCAPIGHRDADAGELESWQPQKLSTAALDAAKSIAARIVKALGGRGVFGVELMINGDEVYFADVTVCPAGSAWVTVRSQRLSVFELQARAILGLAVDTLMISPGAARVINPDHTAGRAAVGAAPPADALTGALGVPESDVVIFGRGLGVALATAPEVAIARERAREVASRLNVPDSRE
notes: also called MtbPurT; PurT

Columns and labels:
phBCCPPurT = target: T1, phBCCPPurT (Pyrococcus horikoshii, UniProt O58056); experiment: biochemical; assay type: binding; conditions: read-out: apparent Kd
T1 construct: gene purT
T1 sequence (O58056 whole entry): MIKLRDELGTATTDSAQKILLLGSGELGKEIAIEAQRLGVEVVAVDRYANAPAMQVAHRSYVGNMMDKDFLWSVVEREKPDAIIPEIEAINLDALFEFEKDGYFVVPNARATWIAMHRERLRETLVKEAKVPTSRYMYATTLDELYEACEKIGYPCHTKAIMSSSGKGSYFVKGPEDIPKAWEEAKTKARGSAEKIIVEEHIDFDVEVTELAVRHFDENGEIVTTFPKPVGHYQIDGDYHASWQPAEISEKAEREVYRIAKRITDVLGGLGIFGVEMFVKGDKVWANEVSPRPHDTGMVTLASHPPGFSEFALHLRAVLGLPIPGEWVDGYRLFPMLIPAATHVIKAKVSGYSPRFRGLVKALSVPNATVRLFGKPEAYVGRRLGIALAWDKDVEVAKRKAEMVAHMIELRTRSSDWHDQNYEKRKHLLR

SEC = target: the molecule itself; experiment: SEC

Row | Molecule | Kd (phBCCPPurT) [µM] | stoichiometry N (SEC)
1 | Nc1ncnc2c1ncn2[C@@H]1O[C@H](CO[P@](=O)(O)O[P@](=O)(O)O[P@@](=O)(O)S)[C@@H](O)[C@H]1O [ATPγS] | 41.8 ± 7.21 | 
2 | B1 |  | 2
